Values of other authors in patent US10285987B2, “Device and kit for dosing and dispensing non-liquid medicine” (AmpliPharm Pharmaceuticals, LLC, priority 2017, dated 2019).

Details: skin contact

## Cn1nnc2c(C(N)=O)ncn2c1=O [temozolomide, 3,4-dihydro-3-methyl-4-oxoimidazo [5,1-d]-as-tetrazine-8-carboxamide]
  classification for skin corrosion/irritation and eye irritation: category 2
